For the test, the system named is BDF1 mice, B16 melanoma ip, median survival T/C. Kind of test: NCI In Vivo Anticancer Drug Screen. Data for tumor model B16 Melanoma (intraperitoneal) in B6D2F1 (BDF1) mice. To be noted: endpoint: median survival time, higher = longer survival. In short, it runs like this:
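Tumor-bearing mice received test compound or vehicle. Survival or tumor size was then measured in both groups. The treated-group figure was divided by the control-group figure.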

[1] abbreviates: dose: 6.25 mg/kg/injection, schedule: Q01DX009 (ip), vehicle: saline with Tween-80.
[2] abbreviates: dose: 25.0 mg/kg/injection, schedule: Q01DX009 (ip), vehicle: saline.
Setting [3] is: dose: 50.0 mg/kg/injection, schedule: Q01DX009 (ip), vehicle: saline.
Setting [4] is: dose: 100.0 mg/kg/injection, schedule: Q01DX009 (ip), vehicle: saline.
Where [5] appears, read: dose: 3.13 mg/kg/injection, schedule: Q01DX009 (ip), vehicle: saline.
The mark [6] stands for this setting: dose: 6.25 mg/kg/injection, schedule: Q01DX009 (ip), vehicle: saline.
Setting [7] is: dose: 12.5 mg/kg/injection, schedule: Q01DX009 (ip), vehicle: saline.
The mark [8] stands for this setting: dose: 100.0 mg/kg/injection, schedule: Q01DX009 (ip), vehicle: saline with Tween-80.
The mark [9] stands for this setting: dose: 200.0 mg/kg/injection, schedule: Q01DX009 (ip), vehicle: saline with Tween-80.
[10] abbreviates: dose: 400.0 mg/kg/injection, schedule: Q01DX009 (ip), vehicle: saline with Tween-80.
[11] abbreviates: dose: 50.0 mg/kg/injection, schedule: Q01DX009 (ip), vehicle: saline with Tween-80.
Where [12] appears, read: dose: 100.0 mg/kg/injection, schedule: Q01DX009 (ip), vehicle: Klucel (hydroxypropylcellulose) (HPC).
[13] abbreviates: dose: 200.0 mg/kg/injection, schedule: Q01DX009 (ip), vehicle: Klucel (hydroxypropylcellulose) (HPC).
[14] abbreviates: dose: 50.0 mg/kg/injection, schedule: Q01DX009 (ip), vehicle: Klucel (hydroxypropylcellulose) (HPC).
Where [15] appears, read: dose: 75.0 mg/kg/injection, schedule: Q01DX009 (ip), vehicle: Klucel (hydroxypropylcellulose) (HPC).
Setting [16] is: dose: 150.0 mg/kg/injection, schedule: Q01DX009 (ip), vehicle: Klucel (hydroxypropylcellulose) (HPC).
The mark [17] stands for this setting: dose: 300.0 mg/kg/injection, schedule: Q01DX009 (ip), vehicle: Klucel (hydroxypropylcellulose) (HPC).

Values joined by “and” are separate entries in the source; they are usually repeats but may differ in a detail not shown here. Equal entries are not always repeated. Inconclusive results and toxic doses are left out.

As to `O=C1c2cccc3cc([N+](=O)[O-])cc(c23)C(=O)N1CCN1CCCC1`, the T/C was 109 % of control (dose: 1.56 mg/kg/injection, schedule: Q01DX009 (ip), vehicle: saline with Tween-80); 110 % of control and 111 % of control (dose: 3.12 mg/kg/injection, schedule: Q01DX009 (ip), vehicle: saline with Tween-80); 91 % of control and 118 % of control under setting [1]; 110 % of control (dose: 25.0 mg/kg/injection, schedule: Q01DX009 (ip), vehicle: saline with Tween-80).
For `C[N+]1(C)C2CC(=O)CC1C1CC12` (stereo not drawn) (tested in a mixture with another compound), the T/C reads like this: under setting [2], 102 % of control; under setting [3], 89 % of control; under setting [4], 99 % of control; (dose: 200.0 mg/kg/injection, schedule: Q01DX009 (ip), vehicle: saline) 100 % of control.
Consider `O=S(=O)(O)c1ccc(/C2=c3\cc/c([n-]3)=C(\c3ccc(S(=O)(=O)O)cc3)c3ccc([n-]3)/C(c3ccc(S(=O)(=O)O)cc3)=c3/cc/c([n-]3)=C(\c3ccc(S(=O)(=O)O)cc3)c3ccc2[n-]3)cc1.[Co]`, for which the T/C was 111 % of control under setting [5], 107 % of control under setting [6], 108 % of control under setting [7] and 101 % of control under setting [2].
Turning to `Cc1cc2nc(-c3ccccc3)c(-c3ccccc3)nc2cc1C`, the T/C reads like this: under setting [8], 102 % of control; under setting [9], 100 % of control; under setting [10], 91 % of control.
Take `CC(CCl)C(C#N)(c1ccccc1)c1ccccc1` (stereo not drawn): the T/C is 93 % of control under setting [11], 90 % of control under setting [8] and 102 % of control under setting [9].
Consider `Cl/C=C(\Cl)CCl`, for which the T/C runs as follows: under setting [1], 108 % of control; (dose: 12.5 mg/kg/injection, schedule: Q01DX009 (ip), vehicle: saline with Tween-80) 90 % of control.
Turning to `CC1=CC(=O)N(NC(N)=O)C1=O`, the T/C under setting [7] is 107 % of control, the T/C under setting [2] was 96 % of control and the T/C under setting [3] is 87 % of control.
Turning to `O=C(O)c1ccccc1C(=O)O.[C-]#[O+].[C-]#[O+].[C-]#[O+].[C-]#[O+].[Rh].[Rh]`, the T/C is 108 % of control under setting [12]; 100 % of control under setting [13]; 94 % of control (dose: 400.0 mg/kg/injection, schedule: Q01DX009 (ip), vehicle: Klucel (hydroxypropylcellulose) (HPC)).
Take `CCOC(=O)c1ccc(OC(=O)Nc2ccc(Cl)cc2)cc1`: the T/C was 96 % of control under setting [8] and 92 % of control under setting [9].
For `CC(C(=O)O)C(=O)O.[NH2-].[NH2-].[Pt+2]`, the T/C runs as follows: (dose: 0.78 mg/kg/injection, schedule: Q01DX009 (ip), vehicle: Klucel (hydroxypropylcellulose) (HPC)) 102 % of control; (dose: 1.56 mg/kg/injection, schedule: Q01DX009 (ip), vehicle: Klucel (hydroxypropylcellulose) (HPC)) 109 % of control; (dose: 3.12 mg/kg/injection, schedule: Q01DX009 (ip), vehicle: Klucel (hydroxypropylcellulose) (HPC)) 120 % of control; (dose: 6.25 mg/kg/injection, schedule: Q01DX009 (ip), vehicle: Klucel (hydroxypropylcellulose) (HPC)) 156 % of control; under setting [6], 124 % of control; (dose: 12.5 mg/kg/injection, schedule: Q01DX009 (ip), vehicle: Klucel (hydroxypropylcellulose) (HPC)) 175 % of control. In addition, the T/C reads like this: under setting [7], 160 % of control; (dose: 25.0 mg/kg/injection, schedule: Q01DX009 (ip), vehicle: Klucel (hydroxypropylcellulose) (HPC)) 216 % of control; under setting [2], 175 % of control; under setting [3], 209 % of control; under setting [4], 202 % of control.
`O=C(O)C1CCCCC1C(=O)Nc1ccc(Cl)cc1` (stereo not drawn): the T/C by setting is: under setting [14], 114 % of control; under setting [12], 105 % of control; under setting [13], 107 % of control.
Consider `c1ccc(Cc2ccccc2)cc1`, for which the T/C under setting [8] was 89 % of control.
As to `CNC1C(O)C(NC)C2OC3(O)C(=O)CC(C)OC3OC2C1O` (stereo not drawn), the T/C is, setting by setting: under setting [2], 95 % of control; under setting [3], 100 % of control; under setting [4], 109 % of control.
With `CCOC(=O)C(Cl)CCl` (stereo not drawn), the T/C reads like this: under setting [14], 100 % of control; under setting [12], 100 % of control.
Turning to `COc1cc(C=Nc2cccc(C(F)(F)F)c2)ccc1O`, the T/C was 99 % of control under setting [12] and 94 % of control under setting [13].
In the case of `CCCCCCCCCCCCCCP(I)(N(C)C)(N(C)C)N(C)C`, the T/C by setting is: (dose: 0.1 mg/kg/injection, schedule: Q01DX009 (ip), vehicle: saline with Tween-80) 90 % of control; (dose: 0.2 mg/kg/injection, schedule: Q01DX009 (ip), vehicle: saline with Tween-80) 94 % of control; (dose: 0.38 mg/kg/injection, schedule: Q01DX009 (ip), vehicle: saline with Tween-80) 88 % of control; (dose: 0.4 mg/kg/injection, schedule: Q01DX009 (ip), vehicle: saline with Tween-80) 93 % of control.
Consider `CC(=O)SCCCCl`, for which the T/C runs as follows: under setting [11], 108 % of control; under setting [8], 112 % of control; under setting [9], 97 % of control.
For `O=C(O)c1cccc2c1S(=O)(=O)c1ccccc1C2=O`, the T/C reads like this: under setting [15], 100 % of control; under setting [16], 97 % of control; under setting [17], 100 % of control.
For `CCCCCCCCCCCCCCCCCCNC(=O)Nc1cc(C)ccc1C`, the T/C runs as follows: (dose: 25.0 mg/kg/injection, schedule: Q01DX009 (ip), vehicle: gum acacia) 100 % of control; (dose: 50.0 mg/kg/injection, schedule: Q01DX009 (ip), vehicle: gum acacia) 93 % of control; (dose: 100.0 mg/kg/injection, schedule: Q01DX009 (ip), vehicle: gum acacia) 107 % of control.
Take `COc1ccc2c(c1)c(C#N)cc[n+]2C`: the T/C is 102 % of control under setting [5] and 100 % of control under setting [6].
On to `C=C(C)C1C2CC3(C)C4(CO4)C4OC4C3(O)C1C(=O)O2` (stereo not drawn), for which the T/C is, setting by setting: (dose: 0.07 mg/kg/injection, schedule: Q01DX009 (ip), vehicle: Klucel (hydroxypropylcellulose) (HPC)) 102 % of control; (dose: 0.15 mg/kg/injection, schedule: Q01DX009 (ip), vehicle: Klucel (hydroxypropylcellulose) (HPC)) 104 % of control; (dose: 0.3 mg/kg/injection, schedule: Q01DX009 (ip), vehicle: Klucel (hydroxypropylcellulose) (HPC)) 106 % of control; (dose: 0.6 mg/kg/injection, schedule: Q01DX009 (ip), vehicle: Klucel (hydroxypropylcellulose) (HPC)) 98 % of control; (dose: 1.2 mg/kg/injection, schedule: Q01DX009 (ip), vehicle: Klucel (hydroxypropylcellulose) (HPC)) 101 % of control.
As for `NC(=O)c1ccccc1OCc1ccccc1`, the T/C is, setting by setting: under setting [15], 100 % of control; under setting [16], 101 % of control; under setting [17], 101 % of control.
Turning to `CC1=[N+](C)C(C)(C)CC(C)O1` (stereo not drawn), the T/C is, setting by setting: (dose: 3.12 mg/kg/injection, schedule: Q01DX009 (ip), vehicle: saline) 91 % of control; under setting [6], 104 % of control; under setting [7], 104 % of control; under setting [2], 91 % of control.
Consider `Cc1ccc(S(=O)(=O)Oc2ccc(-c3ccc(Br)cc3)cc2)cc1`, for which the T/C is 96 % of control under setting [11], 93 % of control under setting [8], 86 % of control under setting [9] and 91 % of control under setting [10].
Turning to `Cc1ccccc1N=Nc1c(N)ccc2ccccc12`, the T/C reads like this: under setting [14], 110 % of control; under setting [12], 106 % of control; under setting [13], 106 % of control.
Take `CC1(C#N)CCc2c(ccc3ccccc23)C1=O` (stereo not drawn): the T/C is, setting by setting: (dose: 50.0 mg/kg/injection, schedule: Q04DX003 (ip), vehicle: other) 122 % of control; (dose: 100.0 mg/kg/injection, schedule: Q04DX003 (ip), vehicle: other) 107 % of control; (dose: 100.0 mg/kg/injection, schedule: Q04DX003 (ip), vehicle: saline with Tween-80) 95 % of control; (dose: 400.0 mg/kg/injection, schedule: Q04DX003 (ip), vehicle: saline with Tween-80) 95 % of control.

(Values after PubChem BioAssay AID192 (DTP/NCI, 2004).)
